Legend:
Assay type in all cases: in vivo
[1] = test system: wheat (Triticum aestivum); test: Test A preemergence, wheat; conditions: 0 to 100 scale (0 no effect, 100 complete control)
Method in brief: (§1)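 Seeds planted in loam–sand blend; compounds in non-phytotoxic solvent with surfactant applied as directed preemergence soil spray, or postemergence to plants 2–10 cm tall at one- to two-leaf stage. After ~10 days in greenhouse, injury rated visually versus untreated controls on 0–100 scale (100 = complete control).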

[2] = test system: velvetleaf (Abutilon theophrasti); test: Test A preemergence, velvetleaf; conditions: 0 to 100 scale (0 no effect, 100 complete control)
Method in brief: as §1

[3] = test system: morningglory (Ipomoea spp.); test: Test A postemergence, morningglory; conditions: 0 to 100 scale (0 no effect, 100 complete control)
Method in brief: as §1

corn (Zea mays) [4] = test: Test A postemergence, corn; conditions: 0 to 100 scale (0 no effect, 100 complete control)
Method in brief: as §1

[5] = test system: large crabgrass (Digitaria sanguinalis); test: Test A postemergence, large crabgrass; conditions: 0 to 100 scale (0 no effect, 100 complete control)
Method in brief: as §1

[6] = test system: umbrella sedge (Cyperus difformis); test: Test B flooded paddy test, umbrella sedge; conditions: Flood, scale 0 to 100
Method in brief: (§2)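 Compounds were added directly to paddy water over 2-leaf-stage plants in pots flooded 3 cm above soil, water depth maintained. Visual injury scored against controls after 13 to 15 days in greenhouse, 0 (none) to 100 (complete control); dash indicates no result.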

[7] = test system: barnyardgrass (Echinochloa crus-galli); test: Test A postemergence, barnyardgrass; conditions: 0 to 100 scale (0 no effect, 100 complete control)
Method in brief: as §1

[8] = test system: pigweed (Amaranthus retroflexus); test: Test A postemergence, pigweed; conditions: 0 to 100 scale (0 no effect, 100 complete control)
Method in brief: as §1

rice (Oryza sativa) = test: Test B flooded paddy test, rice; conditions: Flood, scale 0 to 100
Method in brief: as §2

[9] = test system: pigweed (Amaranthus retroflexus); test: Test A preemergence, pigweed; conditions: 0 to 100 scale (0 no effect, 100 complete control)
Method in brief: as §1

[10] = test system: morningglory (Ipomoea spp.); test: Test A preemergence, morningglory; conditions: 0 to 100 scale (0 no effect, 100 complete control)
Method in brief: as §1

[11] = test system: ducksalad (Heteranthera limosa); test: Test B flooded paddy test, ducksalad; conditions: Flood, scale 0 to 100
Method in brief: as §2

[12] = test system: wheat (Triticum aestivum); test: Test A postemergence, wheat; conditions: 0 to 100 scale (0 no effect, 100 complete control)
Method in brief: as §1

[13] = test system: velvetleaf (Abutilon theophrasti); test: Test A postemergence, velvetleaf; conditions: 0 to 100 scale (0 no effect, 100 complete control)
Method in brief: as §1

[14] = test system: giant foxtail (Setaria faberi); test: Test A postemergence, giant foxtail; conditions: 0 to 100 scale (0 no effect, 100 complete control)
Method in brief: as §1

[15] = test system: barnyardgrass (Echinochloa crus-galli); test: Test A preemergence, barnyardgrass; conditions: 0 to 100 scale (0 no effect, 100 complete control)
Method in brief: as §1

[16] = test system: large crabgrass (Digitaria sanguinalis); test: Test A preemergence, large crabgrass; conditions: 0 to 100 scale (0 no effect, 100 complete control)
Method in brief: as §1

corn (Zea mays) [17] = test: Test A preemergence, corn; conditions: 0 to 100 scale (0 no effect, 100 complete control)
Method in brief: as §1

[18] = test system: giant foxtail (Setaria faberi); test: Test A preemergence, giant foxtail; conditions: 0 to 100 scale (0 no effect, 100 complete control)
Method in brief: as §1

[19] = test system: barnyardgrass (Echinochloa crus-galli); test: Test B flooded paddy test, barnyardgrass; conditions: Flood
Method in brief: as §2

[20] = 250 g ai/ha, scale 0 to 100 (0 no effect, 100 complete control)

Structure (SMILES): CC1(C)CC(S(=O)(=O)Cc2c(C(F)(F)F)nc3n(c2=O)CCCCC3)=NO1 [Compound 33]
- Plant response rating, Wheat ([1]; 125 g ai/ha): 0
- Plant response rating, Wheat ([1]; 500 g ai/ha): 50
- Plant response rating, Velvetleaf ([2]; 125 g ai/ha): 30
- Plant response rating, Velvetleaf ([2]; 500 g ai/ha): 60
- Plant response rating, Morningglory ([3]; 125 g ai/ha): 40
- Plant response rating, Morningglory ([3]; 500 g ai/ha): 60
- Plant response rating, Corn (corn (Zea mays) [4]; 125 g ai/ha): 0
- Plant response rating, Corn (corn (Zea mays) [4]; 500 g ai/ha): 0
- Plant response rating, Crabgrass, Large ([5]; 125 g ai/ha): 50
- Plant response rating, Crabgrass, Large ([5]; 500 g ai/ha): 80
- Plant response rating, Sedge, Umbrella ([6]; 31 g ai/ha): 0
- Plant response rating, Sedge, Umbrella ([6]; 62 g ai/ha): 20
- Plant response rating, Sedge, Umbrella ([6]; 125 g ai/ha): 60
- Plant response rating, Sedge, Umbrella ([6]; 250 g ai/ha): 80
- Plant response rating, Barnyardgrass ([7]; 125 g ai/ha): 50
- Plant response rating, Barnyardgrass ([7]; 500 g ai/ha): 80
- Plant response rating, Pigweed ([8]; 125 g ai/ha): 20
- Plant response rating, Pigweed ([8]; 500 g ai/ha): 50
- Plant response rating, Rice (rice (Oryza sativa); 31 g ai/ha): 0
- Plant response rating, Rice (rice (Oryza sativa); 62 g ai/ha): 0
- Plant response rating, Rice (rice (Oryza sativa); 125 g ai/ha): 0
- Plant response rating, Rice (rice (Oryza sativa); 250 g ai/ha): 25
- Plant response rating, Pigweed ([9]; 125 g ai/ha): 10
- Plant response rating, Pigweed ([9]; 500 g ai/ha): 100
- Plant response rating, Morningglory ([10]; 125 g ai/ha): 20
- Plant response rating, Morningglory ([10]; 500 g ai/ha): 50
- Plant response rating, Ducksalad ([11]; 31 g ai/ha): 0
- Plant response rating, Ducksalad ([11]; 62 g ai/ha): 0
- Plant response rating, Ducksalad ([11]; 125 g ai/ha): 20
- Plant response rating, Ducksalad ([11]; 250 g ai/ha): 50
- Plant response rating, Wheat ([12]; 125 g ai/ha): 0
- Plant response rating, Wheat ([12]; 500 g ai/ha): 40
- Plant response rating, Velvetleaf ([13]; 125 g ai/ha): 0
- Plant response rating, Velvetleaf ([13]; 500 g ai/ha): 20
- Plant response rating, Foxtail, Giant ([14]; 125 g ai/ha): 70
- Plant response rating, Foxtail, Giant ([14]; 500 g ai/ha): 80
- Plant response rating, Barnyardgrass ([15]; 125 g ai/ha): 40
- Plant response rating, Barnyardgrass ([15]; 500 g ai/ha): 90
- Plant response rating, Crabgrass, Large ([16]; 125 g ai/ha): 90
- Plant response rating, Crabgrass, Large ([16]; 500 g ai/ha): 100
- Plant response rating, Corn (corn (Zea mays) [17]; 125 g ai/ha): 0
- Plant response rating, Corn (corn (Zea mays) [17]; 500 g ai/ha): 0
- Plant response rating, Foxtail, Giant ([18]; 125 g ai/ha): 90
- Plant response rating, Foxtail, Giant ([18]; 500 g ai/ha): 100
- Plant response rating, Barnyardgrass ([19]; 31 g ai/ha, scale 0 to 100): 0
- Plant response rating, Barnyardgrass ([19]; 62 g ai/ha, scale 0 to 100): 0
- Plant response rating, Barnyardgrass ([19]; 125 g ai/ha, scale 0 to 100): 0
- Plant response rating, Barnyardgrass [19, 20]: 35

Structure (SMILES): CC1(C)CC([S+]([O-])Cc2c(C(F)(F)F)nc3n(c2=O)CCCCC3)=NO1 (stereo not drawn) [Compound 34]
- Plant response rating, Wheat ([1]; 125 g ai/ha): 0
- Plant response rating, Wheat ([1]; 500 g ai/ha): 50
- Plant response rating, Velvetleaf ([2]; 125 g ai/ha): 0
- Plant response rating, Velvetleaf ([2]; 500 g ai/ha): 0
- Plant response rating, Morningglory ([3]; 125 g ai/ha): 30
- Plant response rating, Morningglory ([3]; 500 g ai/ha): 40
- Plant response rating, Corn (corn (Zea mays) [4]; 125 g ai/ha): 0
- Plant response rating, Corn (corn (Zea mays) [4]; 500 g ai/ha): 0
- Plant response rating, Crabgrass, Large ([5]; 125 g ai/ha): 0
- Plant response rating, Crabgrass, Large ([5]; 500 g ai/ha): 40
- Plant response rating, Sedge, Umbrella ([6]; 31 g ai/ha): 0
- Plant response rating, Sedge, Umbrella ([6]; 62 g ai/ha): 0
- Plant response rating, Sedge, Umbrella ([6]; 125 g ai/ha): 0
- Plant response rating, Sedge, Umbrella ([6]; 250 g ai/ha): 0
- Plant response rating, Barnyardgrass ([7]; 125 g ai/ha): 0
- Plant response rating, Barnyardgrass ([7]; 500 g ai/ha): 50
- Plant response rating, Pigweed ([8]; 125 g ai/ha): 0
- Plant response rating, Pigweed ([8]; 500 g ai/ha): 0
- Plant response rating, Rice (rice (Oryza sativa); 31 g ai/ha): 0
- Plant response rating, Rice (rice (Oryza sativa); 62 g ai/ha): 0
- Plant response rating, Rice (rice (Oryza sativa); 125 g ai/ha): 0
- Plant response rating, Rice (rice (Oryza sativa); 250 g ai/ha): 0
- Plant response rating, Pigweed ([9]; 125 g ai/ha): 0
- Plant response rating, Pigweed ([9]; 500 g ai/ha): 0
- Plant response rating, Morningglory ([10]; 125 g ai/ha): 0
- Plant response rating, Morningglory ([10]; 500 g ai/ha): 0
- Plant response rating, Ducksalad ([11]; 31 g ai/ha): 0
- Plant response rating, Ducksalad ([11]; 62 g ai/ha): 0
- Plant response rating, Ducksalad ([11]; 125 g ai/ha): 0
- Plant response rating, Ducksalad ([11]; 250 g ai/ha): 0
- Plant response rating, Wheat ([12]; 125 g ai/ha): 0
- Plant response rating, Wheat ([12]; 500 g ai/ha): 20
- Plant response rating, Velvetleaf ([13]; 125 g ai/ha): 0
- Plant response rating, Velvetleaf ([13]; 500 g ai/ha): 0
- Plant response rating, Foxtail, Giant ([14]; 125 g ai/ha): 0
- Plant response rating, Foxtail, Giant ([14]; 500 g ai/ha): 60
- Plant response rating, Barnyardgrass ([15]; 125 g ai/ha): 0
- Plant response rating, Barnyardgrass ([15]; 500 g ai/ha): 70
- Plant response rating, Crabgrass, Large ([16]; 125 g ai/ha): 0
- Plant response rating, Crabgrass, Large ([16]; 500 g ai/ha): 80
- Plant response rating, Corn (corn (Zea mays) [17]; 125 g ai/ha): 0
- Plant response rating, Corn (corn (Zea mays) [17]; 500 g ai/ha): 0
- Plant response rating, Foxtail, Giant ([18]; 125 g ai/ha): 0
- Plant response rating, Foxtail, Giant ([18]; 500 g ai/ha): 90
- Plant response rating, Barnyardgrass ([19]; 31 g ai/ha, scale 0 to 100): 0
- Plant response rating, Barnyardgrass ([19]; 62 g ai/ha, scale 0 to 100): 0
- Plant response rating, Barnyardgrass ([19]; 125 g ai/ha, scale 0 to 100): 0
- Plant response rating, Barnyardgrass [19, 20]: 0
